Data set [1] has as its system human CD4 T cells. The data set can be described thus: Proliferation assay of human CD4 T cells (dye dilution, flow cytometry). The data set is classed as cell-based. The text has this: Human CD4 T cells were purified from the whole blood of healthy volunteers. Briefly, peripheral blood mononuclear cells (PBMCs) were isolated by Percoll gradient (Sigma-Aldrich, St. Louis, MO, USA). CD4 T cells were isolated from PBMCs using Isolation Kit (Miltenyi Biotec, Bergisch Gladbach, Germany). For murine CD4 T cells, lymph nodes from naive C57BL/6 male mice were harvested, and CD4 T cells were purified using Isolation Kit (Miltenyi Biotec, Bergisch Gladbach, Germany) according to the manufacturer’s recommendations.
A total of 1 × 10^5 CD4 T cells were labeled with 1 μM Dye Efluor® 670 (eBioscience, San Diego, CA, USA) for 15 min at 37 °C and cultured in RPMI-1640 10% FBS for 4 days in a 96-well U-bottom plate (Falcon, Franklin Lakes, New Jersey, USA) with the LAP salt diluted in RPMI-1640 (10, 30, and 100 μM), LEF diluted in RPMI-1640 (10, 30, and 100 μM; Arava®, Sanofi, France) and/or uridine (30, 100, and 300 μM; Sigma-Aldrich, St. Louis, MO, USA) in the presence of anti-CD3 (3 μg/ml) and anti-CD28 (1.5 μg/ml). The proliferation of CD4 T cells was determined by dye dilution in flow cytometry analysis. The results were expressed as the percentage of suppression using the following formula: [proliferation of CD4 T cells only – (proliferation of T CD4 cells with LEF or LAP)/proliferation of CD4 T cells only] × 100.
For orientation: In flow cytometry, cells or beads pass a laser one at a time.

For data set [2], the system named is human CD4 T cells. In words: Annexin-V/propidium iodide staining for apoptotic cell death. The data set is classed as cell-based. To be noted: human CD4 T cells, 10, 30, and 100 μM. On the procedure: We next assessed the antiproliferative effect of LAP. To this end, freshly isolated mouse CD4 T cells were labelled with Dye Efluor 670 and stimulated with anti-CD3/CD28 in the presence of LAP or LEF (10, 30, and 100 μM) for 4 days. […] We also investigated the effect of LAP in human CD4 T cells isolated from the peripheral blood of healthy donors. […] Additionally, we performed annexin-V/propidium iodide (PI) staining of human CD4 T cells treated with LAP or LEF to assess apoptotic cell death. […] Thus, the reduction of T-cell proliferation by LAP below 100 μM was primarily due to inhibition of the proliferative response rather than a reduction of cellular viability by toxicity.

We go through one compound from publication PMC5341405, “Lapachol, a compound targeting pyrimidine metabolism, ameliorates experimental autoimmune arthritis” (Arthritis Research & Therapy, 2017).

The structures appear in SMILES notation.

With `CC(C)=CCC1=C(O)C(=O)c2ccccc2C1=O` [LAP, 2-hydroxy-3-(3methyl-2-butenyl)-1,4-naphthoquinone], the “effect on proliferation of human CD4 T cells” value in data set [1] (10, 30, and 100 μM, 4 days, anti-CD3/CD28) is reported as “dose-dependent inhibition of human T-cell proliferation”. The “suppression of proliferation compared with LEF” value in data set [1] (human CD4 T cells, same equivalent concentrations) was “greater ability to suppress the proliferation”. For the same compound, in data set [1] (human CD4 T cells, uridine 30, 100, and 300 μM), the “antiproliferative effect in the presence of uridine” value is “uridine was able to reverse the antiproliferative effect of LAP in a dose-dependent manner”. In data set [2], the “toxicity (apoptotic cell death, annexin-V/PI)” value is reported as “only the highest concentration of LAP (100 μM) was toxic”.
